Source: paper PMC6274642, “Small molecule inhibitors reveal allosteric regulation of USP14 via steric blockade” (Cell Research, 2018)

How the values were obtained:
[1] = molecular target: T1, IsoT (Homo sapiens, UniProt P45974); assay: Ub-AMC hydrolysis assay, IsoT; format: biochemical; conditions: 1 μM Ub-AMC, 10 nM IsoT
T1 construct: made in house
T1 sequence (P45974 1-858): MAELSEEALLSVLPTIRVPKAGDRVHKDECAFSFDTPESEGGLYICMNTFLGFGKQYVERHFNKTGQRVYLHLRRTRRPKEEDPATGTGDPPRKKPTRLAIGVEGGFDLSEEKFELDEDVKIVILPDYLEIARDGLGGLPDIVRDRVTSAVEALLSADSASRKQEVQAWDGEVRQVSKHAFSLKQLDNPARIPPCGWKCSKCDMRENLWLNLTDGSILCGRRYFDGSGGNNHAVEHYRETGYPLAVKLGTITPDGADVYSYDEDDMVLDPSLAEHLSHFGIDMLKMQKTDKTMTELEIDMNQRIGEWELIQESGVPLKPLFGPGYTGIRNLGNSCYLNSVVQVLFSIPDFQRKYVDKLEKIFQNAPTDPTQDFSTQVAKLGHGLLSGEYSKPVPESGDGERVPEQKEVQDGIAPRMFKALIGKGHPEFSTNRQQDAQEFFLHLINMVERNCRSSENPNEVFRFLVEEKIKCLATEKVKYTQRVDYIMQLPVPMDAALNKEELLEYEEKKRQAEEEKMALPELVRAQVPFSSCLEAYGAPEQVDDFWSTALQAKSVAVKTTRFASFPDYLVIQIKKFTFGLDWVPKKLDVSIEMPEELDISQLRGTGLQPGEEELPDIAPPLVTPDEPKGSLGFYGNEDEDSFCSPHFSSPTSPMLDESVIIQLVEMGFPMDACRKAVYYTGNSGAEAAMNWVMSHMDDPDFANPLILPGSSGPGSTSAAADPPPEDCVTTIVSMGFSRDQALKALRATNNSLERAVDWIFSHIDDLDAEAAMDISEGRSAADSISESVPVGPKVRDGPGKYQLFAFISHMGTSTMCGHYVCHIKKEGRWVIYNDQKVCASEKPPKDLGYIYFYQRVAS
Description: Ub-AMC hydrolysis activity of IsoT.

[2] = molecular target: T2, USP14 (Homo sapiens, UniProt P54578); assay: Kinetic analysis (Vm, Km) of Ub-AMC hydrolysis by USP14; format: biochemical; conditions: Km varied, Vm unchanged with inhibitor concentration
T2 construct: Glutathione S-transferase (GST)-tagged full-length USP14; GST (N); made in house
Procedure: Menten plot of the concentration-dependence of Ub-AMC (1-48 μM) hydrolysis in the presence
The data were fit to a curve by nonlinear regression
(§1) (1 picture or pasted object on this page, not shown here)

[3] = molecular target: T3, USP14 Y476A (Homo sapiens, UniProt P54578, Y476A); assay: Ub-AMC hydrolysis assay, USP14 Y476A mutant; format: biochemical; conditions: 15 μM compound
T3 construct: Glutathione S-transferase (GST)-tagged full-length USP14; GST (N); made in house
Description: (§2) Supplementary information, Fig. S3 Structural and biochemical analyses of the three […]
(§3) (a) H426 of USP14 forms a hydrogen bind with R74 of Ub, while Y476 forms a hydrogen bound with D199. (b) The Y476K, Y476R and D199A point mutations all abolish the formation of USP14/Ub-PA complex. The result was visualized by SDS-PAGE and Coomassie blue staining. (c-f) Linear kinetics of Ub-AMC hydrolysis by USP14 WT, H426E, Y436A and […]
(§4) curves have R2>0.99. Error bars represent SDs.
as §1

[4] = molecular target: T4, USP14^CAT (Homo sapiens, UniProt P54578); assay: In vitro Ub-PA assay, USP14^CAT; format: binding; conditions: 5 mM compound, 3 μM USP14^CAT, preincubation 1 h 25 °C, 12 μM Ub-PA
T4 construct: catalytic domain (residues 96–494) of USP14 were cloned into the pGEX-6P-1 vector; GST (N, cleaved yes); made in house
T4 sequence (P54578 96-494): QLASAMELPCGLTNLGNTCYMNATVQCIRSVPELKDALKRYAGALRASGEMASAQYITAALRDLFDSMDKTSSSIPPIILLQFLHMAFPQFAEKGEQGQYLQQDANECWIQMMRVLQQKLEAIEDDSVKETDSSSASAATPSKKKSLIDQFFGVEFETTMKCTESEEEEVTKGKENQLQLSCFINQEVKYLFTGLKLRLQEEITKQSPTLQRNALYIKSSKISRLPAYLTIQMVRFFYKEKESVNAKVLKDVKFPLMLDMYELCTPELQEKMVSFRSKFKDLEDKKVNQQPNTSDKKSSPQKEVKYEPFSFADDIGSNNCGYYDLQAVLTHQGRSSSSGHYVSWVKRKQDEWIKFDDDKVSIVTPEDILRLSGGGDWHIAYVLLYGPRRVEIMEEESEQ
Procedure: All the results were visualized by SDS-PAGE and Coomassie blue staining. Ub-PA ubiquitin-propargylamide
We then turned to the biochemical Ub-PA (ubiquitin-propargylamide) assay. […] The covalent attachment of Ub-PA (8 kD) to USP14^CAT (45 kD) produced the novel USP14/Ub-PA complex with an increased molecular weight (53 kD).
(§5) For Ub-PA binding, 3 μM DUB protein (USP14^CAT, USP7^CAT, UCH-L1, or UCH-L3) was mixed with 12 μM Ub-PA for at least 1 h at room temperature in a reaction system containing 25 mM Tris-HCl (pH 7.5) and 150 mM NaCl. […] The DMSO concentration should be no more than 10% (v/v). All the samples were analyzed by SDS-PAGE, and the results are shown.

[5] = molecular target: T5, USP7 (Homo sapiens, UniProt Q93009); assay: In vitro Ub-PA assay, USP7; format: binding; conditions: 5 mM compound, 3 μM DUB protein, 12 μM Ub-PA
T5 construct: 3 μM DUB protein (USP14^CAT, USP7^CAT, UCH-L1, or UCH-L3); made in house
T5 sequence (Q93009 214-521 limits assumed): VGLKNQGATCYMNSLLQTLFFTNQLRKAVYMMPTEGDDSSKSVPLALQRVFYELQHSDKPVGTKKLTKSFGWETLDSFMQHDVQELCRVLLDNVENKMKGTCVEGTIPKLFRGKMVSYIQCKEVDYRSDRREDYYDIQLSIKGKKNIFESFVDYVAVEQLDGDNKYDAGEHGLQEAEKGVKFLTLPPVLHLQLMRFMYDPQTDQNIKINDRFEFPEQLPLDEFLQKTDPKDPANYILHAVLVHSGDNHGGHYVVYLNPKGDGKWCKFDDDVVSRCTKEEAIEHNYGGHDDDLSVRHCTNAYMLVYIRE
Procedure: (§6) Linear kinetics of Ub-AMC hydrolysis are shown on the left, and the results of the statistical analysis are shown on the right. […] Error bars represent SDs. […] All the results were visualized by SDS-PAGE and Coomassie blue staining
as §5

[6] = molecular target: T6, UCH-L1 (Homo sapiens, UniProt P09936); assay: In vitro Ub-PA assay, UCH-L1; format: binding; conditions: 5 mM compound, 3 μM DUB protein, 12 μM Ub-PA
T6 construct: made in house
T6 sequence (P09936 1-223): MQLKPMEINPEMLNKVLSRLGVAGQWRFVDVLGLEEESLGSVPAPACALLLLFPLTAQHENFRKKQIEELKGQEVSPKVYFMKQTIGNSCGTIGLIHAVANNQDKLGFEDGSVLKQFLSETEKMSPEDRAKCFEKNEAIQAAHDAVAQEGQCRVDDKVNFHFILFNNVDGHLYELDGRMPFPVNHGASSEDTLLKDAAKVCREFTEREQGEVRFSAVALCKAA
Procedure: as §6, §5

[7] = molecular target: T7, UCH-L3 (Homo sapiens, UniProt P15374); assay: In vitro Ub-PA assay, UCH-L3; format: binding; conditions: 5 mM compound, 3 μM DUB protein, 12 μM Ub-PA
T7 construct: made in house
T7 sequence (P15374 1-230): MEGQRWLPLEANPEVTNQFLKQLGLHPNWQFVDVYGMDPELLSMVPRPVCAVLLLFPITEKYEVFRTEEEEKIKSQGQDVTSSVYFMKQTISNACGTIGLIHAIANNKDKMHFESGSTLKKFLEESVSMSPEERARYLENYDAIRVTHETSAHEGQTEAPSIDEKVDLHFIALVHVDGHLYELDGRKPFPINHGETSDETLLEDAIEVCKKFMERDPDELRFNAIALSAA
Procedure: as §6, §5

[8] = molecular target: T8, USP7 F409A (Homo sapiens, UniProt Q93009, F409A); assay: Ub-AMC hydrolysis assay, USP7 F409A; format: biochemical; conditions: 100 μM compound
T8 construct: made in house
T8 sequence (Q93009 whole entry F409A): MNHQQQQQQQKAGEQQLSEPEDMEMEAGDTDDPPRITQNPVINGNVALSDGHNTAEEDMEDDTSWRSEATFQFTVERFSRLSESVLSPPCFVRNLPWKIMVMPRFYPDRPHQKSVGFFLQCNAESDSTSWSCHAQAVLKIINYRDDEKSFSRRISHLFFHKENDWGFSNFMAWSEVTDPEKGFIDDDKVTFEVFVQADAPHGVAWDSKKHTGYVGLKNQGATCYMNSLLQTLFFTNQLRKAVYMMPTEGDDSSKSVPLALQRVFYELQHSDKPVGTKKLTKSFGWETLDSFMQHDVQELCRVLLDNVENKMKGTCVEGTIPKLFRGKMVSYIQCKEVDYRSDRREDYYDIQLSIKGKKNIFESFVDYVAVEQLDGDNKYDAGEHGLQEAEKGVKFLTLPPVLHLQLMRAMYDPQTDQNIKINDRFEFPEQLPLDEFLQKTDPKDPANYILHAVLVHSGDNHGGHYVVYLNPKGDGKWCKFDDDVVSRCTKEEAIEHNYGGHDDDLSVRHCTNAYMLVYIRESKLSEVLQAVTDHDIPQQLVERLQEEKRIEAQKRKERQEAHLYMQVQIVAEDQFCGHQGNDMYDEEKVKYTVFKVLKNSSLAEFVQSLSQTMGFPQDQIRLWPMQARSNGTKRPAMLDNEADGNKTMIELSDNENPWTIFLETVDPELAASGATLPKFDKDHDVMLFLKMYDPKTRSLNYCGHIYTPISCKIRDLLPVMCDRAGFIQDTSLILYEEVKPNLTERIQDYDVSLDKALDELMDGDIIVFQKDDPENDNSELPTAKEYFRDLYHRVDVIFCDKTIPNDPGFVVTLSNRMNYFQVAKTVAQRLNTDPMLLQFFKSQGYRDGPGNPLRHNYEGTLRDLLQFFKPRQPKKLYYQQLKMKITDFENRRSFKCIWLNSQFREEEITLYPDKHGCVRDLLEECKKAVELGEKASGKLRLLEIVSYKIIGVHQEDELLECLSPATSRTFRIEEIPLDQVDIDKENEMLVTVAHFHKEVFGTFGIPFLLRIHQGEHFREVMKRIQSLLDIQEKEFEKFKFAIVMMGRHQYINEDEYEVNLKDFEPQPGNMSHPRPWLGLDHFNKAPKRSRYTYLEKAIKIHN
Description: To explain the selectivity of IU1, we first compared the sequence conservation among the USP family. USP14 shares homology with USP2, IsoT, USP7, and USP15, ranging from 28% to 35%, in the catalytic domain. […] First, we compared the structure of USP14^CAT-IU1 with that of apo USP7 (Fig. 3a, b). H426 and Y436 in USP14 aligned well with the corresponding residues in USP7. […] Consistent with this scenario, when we compared the primary sequence and structure of USP14^CAT-IU1 with UCH-L1 and UCH-L3, neither the primary sequence nor the structure of USP14 aligned well with UCH-L1 or UCH-L3 (Fig. 3e, f).
as §6

[9] = Solubility; format: physicochemical; conditions: qualitative
[10] = molecular target: T9, USP14 H426E (Homo sapiens, UniProt P54578, H426E); assay: Ub-AMC hydrolysis assay, USP14 H426E mutant; format: biochemical; set-up: Glutathione S-transferase (GST)-tagged full-length USP14; GST (N); made in house; conditions: 15 μM compound
Description: as §2, §3, §4, §1

[11] = molecular target: T10, USP14 Y436A (Homo sapiens, UniProt P54578, Y436A); assay: Ub-AMC hydrolysis assay, USP14 Y436A mutant; format: biochemical; set-up: Glutathione S-transferase (GST)-tagged full-length USP14; GST (N); made in house; conditions: 15 μM compound
Description: as §2, §3, §4, §1

[12] = molecular target: T9, USP14 H426E; assay: In vitro Ub-PA assay, USP14 H426E mutant; format: binding; set-up: catalytic domain (residues 96–494) of USP14 were cloned into the pGEX-6P-1 vector; GST (N); made in house
Target sequence in this assay (P54578 96-494 H426E): as the sequence (P54578 96-494) above, with H331E counted along it

[13] = molecular target: T10, USP14 Y436A; assay: In vitro Ub-PA assay, USP14 Y436A mutant; format: binding; set-up: catalytic domain (residues 96–494) of USP14 were cloned into the pGEX-6P-1 vector; GST (N); made in house
Target sequence in this assay (P54578 96-494 Y436A): as the sequence (P54578 96-494) above, with Y341A counted along it

[14] = molecular target: proteasome-bound USP14 (Homo sapiens, UniProt P54578); assay: Ub-AMC hydrolysis assay, proteasome-activated USP14
Procedure: It was used to measure the deubiquitinating activity of USP14 variants. The deubiquitination assay was performed by following a published protocol.[7] […] To start the reaction, 1 μM Ub-AMC was added to the system. […] Fluorescence intensity was recorded every 30 s for 15 min. Each experiment was repeated three times, and the average value was calculated.
curves for small-molecule-mediated inhibition of the Ub-AMC hydrolysis activity of
1 nM proteasome. (d-f) Dose-response curves for small-molecule-mediated inhibition of the
Ub-AMC hydrolysis activity of IsoT. The reaction system contained 1 μM Ub-AMC and 10
nM IsoT. All the values correspond to the averages of triplicate experiments.

| Compound | IC50 [1] [µM] | Mode of inhibition of USP14 [2] | Inhibition of Ub-AMC hydrolysis activity of USP14 Y476A [3] | Inhibition of formation of USP14/Ub-PA complex [4] | Inhibition of binding of Ub-PA to USP7 [5] | Inhibition of binding of Ub-PA to UCH-L1 [6] | Inhibition of binding of Ub-PA to UCH-L3 [7] | Effect on Ub-AMC hydrolysis activity of USP7 F409A [8] | Solubility [9] | Inhibition of Ub-AMC hydrolysis activity of USP14 H426E [10] | Inhibition of Ub-AMC hydrolysis activity of USP14 Y436A [11] | Inhibition of Ub-PA binding to USP14 H426E ([12]; 5 mM IU1) | Inhibition of Ub-PA binding to USP14 Y436A ([13]; 5 mM IU1) | Inhibition of Ub-PA binding to USP14 H426E ([12]; 2.5 mM IU1-248) | Inhibition of Ub-PA binding to USP14 Y436A ([13]; 2.5 mM IU1-248) | IsoT/USP14 ([14]; ratio of IC50 values IsoT/USP14) | IC50 ([14]; read-out: IC50 USP14, 1 μM Ub-AMC, 15 nM USP14, 1 nM proteasome) [µM] |
| --- | --- | --- | --- | --- | --- | --- | --- | --- | --- | --- | --- | --- | --- | --- | --- | --- | --- |
| Cc1cc(C(=O)CN2CCCC2)c(C)n1-c1ccc(F)cc1 [IU1] | 143 | competitive inhibitor | no inhibition | significantly inhibited | did not inhibit | did not inhibit | did not inhibit | decreased | poor solubility | no inhibition | no inhibition | could not be inhibited | could not be inhibited |  |  |  |  |
| Cc1cc(C(=O)CN2CCC(O)CC2)c(C)n1-c1ccc(C#N)cc1 [IU1-248, 1-[1-(4-cyanophenyl)-2,5-dimethyl-1H-pyrrol-3-yl]-2-(4-hydroxyl) piperidylethan-1-one] | 21.5 | competitive mechanism |  |  |  |  |  |  | significantly improved solubility |  |  |  |  | abolished the inhibitory effect | abolished the inhibitory effect |  |  |
| Cc1cc(C(=O)CN2CCCCC2)c(C)n1-c1ccc(Cl)cc1 [IU1-47] | 29.1 |  |  |  |  |  |  |  |  |  |  |  |  |  |  | 42.85 | 0.68 |
